Experimental data from PMC4144957, “Molecular Interaction Mechanism between 2-Mercaptobenzimidazole and Copper-Zinc Superoxide Dismutase” (PLoS ONE, 2014).

Target: T1, Cu/ZnSOD from porcine erythrocytes (Sus scrofa, UniProt P04178)
T1 construct: gene SOD1; native, purchased (Biodee Biotechnology), from porcine erythrocytes; homodimer; human structure 1HL4 used only for docking
Test: NBT photoreduction assay
Assay type: biochemical
Details: read-out: relative activity (%) at 100 nM MBI

T1 sequence (P04178 2-153): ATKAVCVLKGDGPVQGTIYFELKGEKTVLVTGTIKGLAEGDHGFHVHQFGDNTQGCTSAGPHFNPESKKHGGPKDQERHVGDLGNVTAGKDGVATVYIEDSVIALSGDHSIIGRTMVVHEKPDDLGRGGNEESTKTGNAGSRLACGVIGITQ

`S=c1[nH]c2ccccc2[nH]1` [MBI] showed an activity at 0.1 µM of 89.3 ± 1.2%.
